Entries after “also recorded” stand apart in the source; their conditions may differ.
Columns and labels:
[1] = tested on: MCF7, HEK293 and T47D cells; assay: Viability of cells grown in glucose (glycolytic) vs galactose (Hi-OXPHOS); assay type: cell-based, human; details: screen
Protocol: FIGS. 40A-40D: Cancer cell metabolism alters sensitivity to elesclomol.
FIGS. 41A-41B: Cancer cell metabolism alters sensitivity to elesclomol.
FIGS. 51A-51D: Elesclomol preferentially targets cells in the Hi-OXPHOS state. […] The relative cell growth (color coded) was analyzed 72 hours post compound addition. Plotted are the mean SD of at least three replicas and the calculated EC50s (FIGS. 51B-51C). […] Reactive groups are indicated with a colored circle.
FIGS. 57A-57C: Elesclomol preferentially targets cells in the Hi-OXPHOS state. […] Analogs named compound 1-6. […] Plotted are the mean SD of at least three replicas and the calculated EC50s (FIG. 57A and FIG. 57C).

T47D cells = assay: The glucose/galactose drug screen; assay type: cell-based, human; details: 10 mM Glucose or Galactose, Selleck anti cancer and natural product libraries
Protocol: We conducted a second set of drug screens to identify unique sensitivities conferred by the Hi-OXPHOS state using parental T47D breast cancer cells (without 19S subunit suppression). For this screen, we used the NPC and CDL libraries as they contained the greatest number of hits in the Lo19S screen. We tested over 800 compounds at multiple concentrations and measured their effects on relative cell growth/viability when cells were grown under aerobic glycolysis conditions (glucose-supplemented medium) or forced mitochondrial respiration conditions (galactose-supplemented medium).
The glucose/galactose drug screen—T47D cells growing in regular media were collected counted and after centrifugation cells were re-suspended in RPM1 media without glucose containing 10% dialyzed serum with the addition of either 10 mM glucose or 10 mM galactose, Cells were then plated at 1000 cells/well in 384-well opaque, white assay plates (Coming, N.Y.), 50 uL per well, and incubated overnight at 37°C./5% CO2. Application of the drug libraries and cell viability was executed as described above for the Lo19S drug screen.

FDX1 = target: T1, FDX1 (Homo sapiens, UniProt P10109); assay: In vitro Fe-S cluster assembly with reduced FDX1 (absorbance at 456 nm); assay type: biochemical; details: x5 concentration relative to enzyme
T1 construct: made in house
T1 sequence (P10109 62-184): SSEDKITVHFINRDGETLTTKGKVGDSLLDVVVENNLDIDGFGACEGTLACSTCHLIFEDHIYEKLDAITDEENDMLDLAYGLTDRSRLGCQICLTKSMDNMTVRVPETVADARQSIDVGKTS
From the text: FIGS. 47A-47C: Inhibition of Fe—S formation by elesclomol and variants (in-vitro). […] Note: “x(number) concentration” means that the indicated compound was present at 5 times the concentration of the enzyme.
(FIG. 53A) provides a schematic describing mitochondrial Fe—S cluster biosynthesis. The mitochondrial ISC (iron-sulfur cluster) core complex contains the scaffold protein ISCU and cysteine desulfurase (ACP-ISD11-NFS1)2. The latter catalyzes the conversion of cysteine to alanine and generates S° for iron sulfur cluster assembly. S° is reduced by FDX1. A [2Fe-2S] cluster is subsequently formed on ISCU. […] In vitro Fe—S cluster assembly was carried out with reduced. FDX1 as the reducing agent in the presence or absence of either 5× (green) or 10× (yellow) elesclomol (both relative to FDX1). Fe—S cluster formation was monitored by following the increase of absorbance at 456 nm. […] The red triangle denotes an NMR peak that became severely broadened. […] The [2Fe-2S] cluster in FDX1 is indicated by spheres.
The in vitro Fe—S cluster assembly was carried out with reduced FDX1 as the reducing agent and detected by following the increase of absorbance at 456 tun following the addition of either of 5× (green) or 10× (yellow, both relative to FDX1) compound-1. […] Fe—S formation was monitored by following the increase of absorbance at 456 nm. […] Cysteine desulfurase activity assay carried out with the indicated concentrations of elesclomol.

| SMILES | targeting of glycolytic cancer cells [1] | relative viability change of cells grown in glucose versus galactose (T47D cells) | in vitro formation of Fe-S clusters mediated by FDX1 (FDX1) |
| --- | --- | --- | --- |
| O=C(/C=C/c1cccnc1)NCCCCC1CCN(C(=O)c2ccccc2)CC1 [APO866] | preferentially targets glycolytic cancer cells | predominantly more sensitive; also recorded: strongest hits in this screen | – |
| CN(NC(=O)CC(=O)NN(C)C(=S)c1ccccc1)C(=S)c1ccccc1 [SAT-4783] | – | – | inhibition |
